Assay results as given in patent US10870635B2, “Compounds and their use as BACE1 inhibitors” (ALLGENESIS BIOTHERAPEUTICS, INC., priority 2015, dated 2020).

target: BACE1 (recombinant β-secretase enzyme) (Homo sapiens (Human), UniProt P56817); assay: AnaSpec BACE1 fluorescent assay (beta-secretase activity assay); format: biochemical; conditions: not given
Procedure: A BACE1 activity assay kit from AnaSpec (Fremont, Calif.) was used to determine the potency of the selected BACE1 inhibitors by AnaSpec BACE1 fluorescent assay. The recombinant β-secretase enzyme was diluted 1:200 in 1× assay buffer (1 part of 1× assay buffer and 1 part of TBS containing 0.1% Tween 20). The enzyme was added in a volume of 40 μl to each well of a black 96-well micro plate.
The BACE1 inhibitors were serially diluted into DMSO from their 10 mM stock concentrations in DMSO. The serially diluted inhibitors were diluted 1:100 into 1× assay buffer in a 96-well polypropylene plate (assay dilution plate). The final concentration of the BACE1 inhibitor tested was 300 nM, 100 nM, 30 nM, 10 nM, 3 nM, 1 nM 0.3 nM, and 0.00 nM. Dose responses for inhibitors were run in duplicate.
A volume of 10 μl of the inhibitor from the assay dilution plate, a control inhibitor LY2886721 or inhibitor vehicle was then added to each well of the black 96-well micro plate containing BACE1.
To each well of the black 96-well micro plate, 50 μl of the β-secretase substrate (Hylite Fluor 488) diluted 1:100 using assay buffer was added. The reagents were mixed gently and the assay plate was placed into a POLARstar fluorescent plate reader with excitation wavelength set at 485 nm and the emission wavelength set at 520 nm. The plate reader was set to take readings every 5 minutes for up to 30 minutes or a 30 minute endpoint reading was used.
An appropriate integrated first-order rate equation was used to fit the data accumulated over a 30-40 minute collection period.

Sequence of BACE1 (recombinant β-secretase enzyme) (P56817 46-501): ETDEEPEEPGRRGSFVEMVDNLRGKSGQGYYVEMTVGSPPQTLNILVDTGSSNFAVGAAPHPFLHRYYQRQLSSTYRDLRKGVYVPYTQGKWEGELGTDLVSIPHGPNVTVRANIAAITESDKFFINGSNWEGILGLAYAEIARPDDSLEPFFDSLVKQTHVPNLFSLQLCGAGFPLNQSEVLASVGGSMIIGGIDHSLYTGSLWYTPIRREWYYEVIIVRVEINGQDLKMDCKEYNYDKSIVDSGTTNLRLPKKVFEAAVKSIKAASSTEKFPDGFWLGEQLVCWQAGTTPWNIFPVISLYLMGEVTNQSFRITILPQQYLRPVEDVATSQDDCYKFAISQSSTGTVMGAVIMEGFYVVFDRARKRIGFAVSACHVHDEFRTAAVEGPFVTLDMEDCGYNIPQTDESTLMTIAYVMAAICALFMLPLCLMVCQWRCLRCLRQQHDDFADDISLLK

SMILES	IC50
CC#Cc1ccc2sc3cc(F)c([C@]4(C)CC(=O)N(C)C(=N)N4)cc3c2c1 [Example 72, (S)-6-(3-Fluoro-8-(prop-1-yn-1-yl)dibenzo[b,d]thiophen-2-yl)-2-imino-3,6-dimethyltetrahydropyrimidin-4(1H)-one]	21 nM
CC#Cc1ccc2c(c1)-c1cc([C@]3(C)CC(=O)N(C)C(=N)N3)ccc1S2(=O)=O [Example 79, (S)-2-Amino-6-(5,5-dioxido-8-(prop-1-yn-1-yl)dibenzo[b,d]thiophen-2-yl)-3,6-dimethyl-5,6-dihydropyrimidin-4(3H)-one]	87 nM
CC#Cc1ccc2c(c1)c1cc([C@]3(C)CC(=O)N(C)C(=N)N3)ccc1[s+]2[O-] (stereo partly drawn) [Example 80, (6S)-2-Amino-3,6-dimethyl-6-(5-oxido-8-(prop-1-yn-1-yl)dibenzo[b,d]thiophen-2-yl)-5,6-dihydropyrimidin-4(3H)-one]	48 nM
CC#Cc1ccc2c(c1)-c1cc([C@]3(C)CC(=O)N(C)C(=N)N3)ccc1C2(C)C [Example 81, (S)-6-(9,9-Dimethyl-6-(prop-1-yn-1-yl)-9H-fluoren-3-yl)-2-imino-3,6-dimethyl-tetrahydropyrimidin-4(1H)-one]	> 300 nM
CC#Cc1ccc2c(c1)-c1cc([C@]3(C)CC(=O)N(C)C(=N)N3)ccc1C2(F)F [Example 82, (S)-6-(9,9-Difluoro-6-(prop-1-yn-1-yl)-9H-fluoren-3-yl)-2-imino-3,6-dimethyltetrahydropyrimidin-4(1H)-one]	> 300 nM
CN1C(=N)N[C@](C)(c2ccc3sc4ccc(C#N)cc4c3c2)CC1=O [Example 85, (S)-8-(2-Imino-1,4-dimethyl-6-oxohexahydropyrimidin-4-yl) dibenzo[b,d]thiophene-2-carbonitrile]	> 300 nM
COCC#Cc1ccc2sc3ccc([C@]4(C)CC(=O)N(C)C(=N)N4)cc3c2c1 [Example 86, (S)-2-Amino-6-(8-(3-methoxyprop-1-yn-1-yl)dibenzo[b,d]thiophen-2-yl)-3,6-dimethyl-5,6-dihydropyrimidin-4(3H)-one]	218 nM
CN1C(=N)N[C@](C)(c2ccc3sc4ccc(C#CCO)cc4c3c2)CC1=O [Example 87, (S)-2-Amino-6-(8-(3-hydroxyprop-1-yn-1-yl)dibenzo[b,d]thiophen-2-yl)-3,6-dimethyl-5,6-dihydropyrimidin-4(3H)-one]	17 nM
CN1C(=N)N[C@](C)(c2ccc3sc4ccc(Br)cc4c3c2)CC1=O [Example 88, (S)-6-(8-Bromodibenzo[b,d]thiophen-2-yl)-2-imino-3,6-dimethyltetrahydro-pyrimidin-4(1H)-one]	> 300 nM
CCCc1ccc2sc3ccc([C@]4(C)CC(=O)N(C)C(=N)N4)cc3c2c1 [Example 89, (S)-2-Imino-3,6-dimethyl-6-(8-propyl-dibenzo[b,d]thiophen-2-yl)tetrahydro-pyrimidin-4(1H)-one]	> 300 nM

More lines, now with the values ahead:

IC50	SMILES
78 nM	CN1C(=N)N[C@](C)(c2ccc3sc4ccc(C5CC5)cc4c3c2)CC1=O [Example 90, (S)-6-(8-Cyclopropyldibenzo[b,d]thiophen-2-yl)-2-imino-3,6-dimethyl-tetrahydropyrimidin-4(1H)-one]
> 300 nM	CN1C(=N)N[C@](C)(c2ccc3sc4ccc(C(N)=O)cc4c3c2)CC1=O [Example 91, (S)-8-(2-Imino-1,4-dimethyl-6-oxohexahydropyrimidin-4-yl)dibenzo [b,d]thiophene-2-carboxamide]
> 300 nM	CCN(CC)c1ccc2sc3ccc([C@]4(C)CC(=O)N(C)C(=N)N4)cc3c2c1 [Example 92, (S)-6-(8-(Diethylamino)dibenzo[b,d]thiophen-2-yl)-2-imino-3,6-dimethyl-tetrahydropyrimidin-4(1H)-one]
81 nM	CN1C(=N)N[C@](C)(c2ccc3sc4ccc(C(F)(F)F)cc4c3c2)CC1=O [Example 94, (S)-2-Amino-3,6-dimethyl-6-(8-(trifluoromethyl)dibenzo[b,d]thiophen-2-yl)-5,6-di hydropyrimidin-4(3H)-one]
> 300 nM	CC#Cc1ccc2sc3ccc([C@]4(C5CC5)CC(=O)N(C)C(=N)N4)cc3c2c1 [Example 99, (R)-6-Cyclopropyl-2-imino-3-methyl-6-(8-(prop-1-yn-1-yl)dibenzo[b,d]thiophen-2-yl)tetrahydropyrimidin-4(1H)-one]
202 nM	CC#Cc1ccc2sc3ccc([C@@]4(C)NC(=N)OCC4(F)F)cc3c2c1 [Example 100, (R)-5,5-Difluoro-4-methyl-4-(8-(prop-1-yn-1-yl)dibenzo[b,d]thiophen-2-yl)-1,3-oxazinan-2-imine]
> 300 nM	CC#Cc1ccc2sc3ccc([C@]4(C)CS(=O)(=O)N(C)C(=N)N4)cc3c2c1 [Example 104, (R)-3-Imino-2,5-dimethyl-5-(8-(prop-1-yn-1-yl)dibenzo[b,d]thiophen-2-yl)-1,2,4-thiadiazinane 1,1-dioxide]
> 300 nM	CC#Cc1ccc2sc3ccc([C@]4(C)CC(=O)N(CC(F)F)C(=N)N4)cc3c2c1 [Example 105, (S)-3-(2,2-Difluoroethyl)-2-imino-6-methyl-6-(8-(prop-1-yn-1-yl)dibenzo [b,d]thiophen-2-yl)tetrahydropyrimidin-4(1H)-one]
> 300 nM	CC#Cc1ccc2sc3ccc([C@]4(C)CC(=O)N(CCOC)C(=N)N4)cc3c2c1 [Example 106, (S)-2-Imino-3-(2-methoxyethyl)-6-methyl-6-(8-(prop-1-yn-1-yl)dibenzo[b,d]thiophen-2-yl)tetrahydropyrimidin-4(1H)-one]
> 300 nM	CC#Cc1ccc2sc3ccc([C@]4(C)CN(C)C(=O)C(=N)N4)cc3c2c1 [Example 115, (R)-3-Imino-1,5-dimethyl-5-(8-(prop-1-yn-1-yl)dibenzo[b,d]thiophen-2-yl) piperazin-2-one]

tested on: Aβ38, Aβ40 and Aβ42 in CSF; assay: Efficacy study in monkeys: Aβ biomarkers in CSF after single oral administration; format: in vivo, cynomolgus monkeys; conditions: Monkey CSF
Text: Certain isoforms of amyloid β peptide (AR), such as Aβ338, Aβ340 and Aβ342 have been established as relevant biomarkers that reflect BACE1 activity and have been exploited to establish translational relationships between different cellular assays and animal models. In this efficacy study, mammals were used to assess amyloid β reduction with BACE1 inhibitors. In a clinical setting, plasma and cerebrospinal fluid (CSF) are the accessible compartments to measure soluble amyloid β levels to determine target profile. It is important to analyze plasma and CSF levels which relate to changes in brain amyloid β levels. The concentration of BACE1 inhibitors and their time-dependent reduction of plasma, CSF and brain amyloid β levels were investigated following intravenous and oral administrations of BACE1 inhibitors.
a (ii). Formulation for PO administration: 5% (v/v) PEG400+95% (v/v) of 1% (w/v) methyl cellulose in water (the viscosity of methyl cellulose is 20 g/L, 20° C., cPa·s: 350.0-550.0). The test article solutions were prepared by dissolving the compound in PEG400 followed by the addition of the aqueous solution to the final volume.
For the oral formulation of a BACE1 inhibitor in the monkey efficacy study (at the dose of 20 mg/kg with the concentration of 2 mg/ml)
1) Weighed […] of the selected BACE1 inhibitors into a clean vial;
2) Added 2.826 mL of PEG400 into the tube containing the compound. Then vortexed for 5 min and sonicated for 45 min;
3) Added 53.688 mL of 1% MC in water into the tube containing the compound. Then vortexed for 4 min and sonicated for 4 min; and
4) Adjusted the pH to the physiological value by using 1N NaOH.
Several studies have shown that drug transport into the CNS may be more similar between humans and primates. […] To explore the mechanism of BACE1 compounds, the compounds were tested using this in vivo study. […] The monkey Aβ reduction study usually takes 3 weeks.
The time-course profiles of neurodegeneration biomarkers were determined following single oral administration of the selected BACE1 inhibitors to male cynomolgus monkeys. Blood samples were collected from all animals via the saphenous vein or cephalic vein at 0 (pre-dose), 0.5, 1, 3, 6, 8, 12 and 24 hr post-dose into test tubes containing potassium ethylenediaminotetraacetic acid (K2EDTA). CSF samples were collected via a pre-implanted cannula at the foramina occipital magnum site at 0 (pre-dose), 3, 6, 12 and 24 hr post-dose.
Plasma was separated from the blood by centrifugation at 4° C. and stored at −80° C. until analyzing. The biomarkers of Aβ38, Aβ40 and Aβ42 in CSF were quantified using Meso Scale Discovery (MSD) multiplex electrochemiluminescence immunoassay according to the manufacturer's instructions. The plates were first blocked with 150 μL of Diluent 35 for 1 hour at room temperature with constant shaking at 600 rpm. After washing three times with 200 μL washing buffer, 25 μL of 1× detection antibody solution, plus Aβ40 blocker, 25 μL of seven standards, zero standard and four-fold diluted samples were added to the assay plate. The plate was incubated for 2 hours at room temperature, with constant shaking at 600 rpm. Upon finishing, the plate was washed three times with washing buffer and read in a Sector Imager 6000 (MSD) immediately after addition of 150 μL of 2× Read Buffer T. Aβ concentrations were calculated with reference to the standard curves of each individual peptide and expressed as pg/mL using SoftMax Pro GXP 5.4.4.

SMILES	% of maximum Aβ40 inhibition over 24 hours
CC#Cc1ccc2sc3cc(F)c([C@]4(C)CC(=O)N(C)C(=N)N4)cc3c2c1 [Example 72, (S)-6-(3-Fluoro-8-(prop-1-yn-1-yl)dibenzo[b,d]thiophen-2-yl)-2-imino-3,6-dimethyltetrahydropyrimidin-4(1H)-one]	33.7%
CC#Cc1cc2c(cc1F)sc1ccc([C@]3(C)CS(=O)(=O)C(C)(C)C(=N)N3)cc12 [Example 128, (R)-5-(7-Fluoro-8-(prop-1-yn-1-yl)dibenzo[b,d]thiophen-2-yl)-3-imino-2,2,5-trimethylthiomorpholine 1,1-dioxide]	49.1%
CC#Cc1ccc2sc3ccc([C@]4(C)CS(=O)(=O)C5(CC5)C(=N)N4)cc3c2c1 [Example 136, (R)-8-Imino-6-methyl-6-(8-(prop-1-yn-1-yl)dibenzo[b,d]thiophen-2-yl)-4-thia-7-azaspiro[2.5]octane 4,4-dioxide]	44.5%
